Test results from patent publication US12577702B2, “Oligonucleotide encoded chemical libraries, related systems, devices, and methods for detecting, analyzing, quantifying, and testing biologics/genetics” (Plexium, Inc., priority 2020, dated 2026).

Biological target: Cathepsin-D protease (Homo sapiens, UniProt P07339)
Experiment: Protease inhibition assay in picowells with compound photo-released from beads
Assay type: biochemical
Conditions: compound released from 10 μm TentaGel bead by UV (365 nm, 77 J/cm^2) to approximately 13 μM; incubated 30 min, 37° C.; λex=480 nm, λem=525 nm
Text: Reagents were placed into wells at 4 degrees C. Ultraviolet light at 365 nm was used to cleave the fluorophore from the bead, thereby releasing the fluorophore and separating it from the quencher. […] This setup with bead-bound pepstatin-A and the aspartyl protease can serve as a positive control.
This bead population was introduced into picowells, then buffer exchanged into a protease inhibition assay, including Cathepsin-D protease and Peptide Q-Fluor substrate (λex=480 nm, λem=525 nm). Wells were encapsulated by air, and entire slide exposed to UV (365 nm, 77 J/cm^2), cleaving the photolabile linker, releasing the compound to reach approximately 13 μM. The flowcell was incubated (30 min, 37° C.).
Greater fluorescence means that the enzyme is more catalytically active. […] Images were captured following UV release and Cathepsin-D assay incubation (λex=480 nm, λem=525 nm). Wells containing positive control beads could be identified spectrally by Cy5 fluorophore (λex=645 nm, λem=665 nm, orange false color).

Cathepsin-D protease, sequence (P07339 65-412): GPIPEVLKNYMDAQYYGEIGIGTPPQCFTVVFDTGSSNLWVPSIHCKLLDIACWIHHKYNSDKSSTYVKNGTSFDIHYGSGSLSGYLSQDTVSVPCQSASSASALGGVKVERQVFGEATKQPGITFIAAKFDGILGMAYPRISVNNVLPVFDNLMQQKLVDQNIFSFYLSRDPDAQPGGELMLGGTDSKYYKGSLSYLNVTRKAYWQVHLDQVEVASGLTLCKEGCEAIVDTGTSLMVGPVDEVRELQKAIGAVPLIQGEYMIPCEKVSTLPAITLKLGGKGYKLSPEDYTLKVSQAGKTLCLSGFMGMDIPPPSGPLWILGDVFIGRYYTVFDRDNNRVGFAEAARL

Cathepsin-D inhibition (fluorescence of Peptide Q-Fluor substrate in well): no Cathepsin-D inhibition
SMILES: CC(C)[C@H](NC(=O)OCC1c2ccccc2-c2ccccc21)C(=O)O [negative control beads, Fmoc-Valine]
